Source: ChEMBL document CHEMBL4507276 (2021)

What was measured:
[1] = target: T1, Muscarinic acetylcholine receptor M2 (Homo sapiens) (UniProt P08172); experiment: M2/H Cerep selectivity data (BI); conditions: filed as antagonist, Compound concentration 20.0 uM
T1 sequence (whole entry): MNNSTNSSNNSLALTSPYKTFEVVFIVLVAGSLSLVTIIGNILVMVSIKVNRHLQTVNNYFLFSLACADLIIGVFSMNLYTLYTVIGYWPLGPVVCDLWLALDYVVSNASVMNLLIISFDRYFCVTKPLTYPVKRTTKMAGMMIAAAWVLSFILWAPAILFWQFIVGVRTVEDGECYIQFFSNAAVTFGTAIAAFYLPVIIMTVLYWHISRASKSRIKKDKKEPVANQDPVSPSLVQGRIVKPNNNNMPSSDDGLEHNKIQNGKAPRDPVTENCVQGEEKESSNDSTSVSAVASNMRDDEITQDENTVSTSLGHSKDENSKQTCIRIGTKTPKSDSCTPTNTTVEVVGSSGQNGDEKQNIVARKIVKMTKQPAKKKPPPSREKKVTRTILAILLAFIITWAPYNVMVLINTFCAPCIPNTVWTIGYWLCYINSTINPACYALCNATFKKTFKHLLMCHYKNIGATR

[2] = target: Muscarinic acetylcholine receptor M3 (Homo sapiens) (UniProt P20309); experiment: M3/H Cerep selectivity data (BI); conditions: Compound concentration 20.0 uM
[3] = target: T2, Muscarinic acetylcholine receptor M4 (Homo sapiens) (UniProt P08173); experiment: M4/H Cerep selectivity data (BI); conditions: Compound concentration 20.0 uM
T2 sequence (whole entry): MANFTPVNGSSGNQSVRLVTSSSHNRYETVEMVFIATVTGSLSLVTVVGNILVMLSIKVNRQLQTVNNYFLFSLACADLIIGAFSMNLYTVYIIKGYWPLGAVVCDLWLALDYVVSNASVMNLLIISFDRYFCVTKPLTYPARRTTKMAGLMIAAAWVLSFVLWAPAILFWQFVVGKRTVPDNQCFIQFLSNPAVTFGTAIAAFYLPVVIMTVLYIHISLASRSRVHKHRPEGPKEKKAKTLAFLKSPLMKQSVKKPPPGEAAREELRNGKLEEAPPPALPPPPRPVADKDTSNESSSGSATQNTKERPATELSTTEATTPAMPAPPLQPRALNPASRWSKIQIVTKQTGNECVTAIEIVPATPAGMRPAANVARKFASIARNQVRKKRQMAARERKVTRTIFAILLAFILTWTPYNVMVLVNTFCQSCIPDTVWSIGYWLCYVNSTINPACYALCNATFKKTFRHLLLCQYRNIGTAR

[4] = target: Melanocortin receptor 3 (Homo sapiens) (UniProt P41968); experiment: MC3H_AGON Cerep selectivity data (BI); conditions: filed as agonist, Compound concentration 20.0 uM
[5] = target: Interstitial collagenase (Homo sapiens) (UniProt P03956); experiment: MMP1 (H) Cerep selectivity data (BI); conditions: Compound concentration 20.0 uM
[6] = target: Mu-type opioid receptor (Homo sapiens) (UniProt P35372); experiment: MU/H Cerep selectivity data (BI); conditions: Compound concentration 20.0 uM
[7] = target: Platelet-activating factor receptor (Homo sapiens) (UniProt P25105); experiment: PAF Cerep selectivity data (BI); conditions: filed as agonist, Compound concentration 20.0 uM
[8] = target: P2X purinoceptor (Oryctolagus cuniculus) (UniProt G1U3D6); experiment: P2X/RB Eurofins-Panlabs selectivity data (BI); conditions: Compound concentration 10.0 uM
[9] = target: T3, Beta-adrenergic receptor kinase 1 (Homo sapiens) (UniProt P25098); experiment: ADRBK1 Invitrogen selectivity data (BI); conditions: Compound concentration 3.0 uM
T3 sequence (whole entry): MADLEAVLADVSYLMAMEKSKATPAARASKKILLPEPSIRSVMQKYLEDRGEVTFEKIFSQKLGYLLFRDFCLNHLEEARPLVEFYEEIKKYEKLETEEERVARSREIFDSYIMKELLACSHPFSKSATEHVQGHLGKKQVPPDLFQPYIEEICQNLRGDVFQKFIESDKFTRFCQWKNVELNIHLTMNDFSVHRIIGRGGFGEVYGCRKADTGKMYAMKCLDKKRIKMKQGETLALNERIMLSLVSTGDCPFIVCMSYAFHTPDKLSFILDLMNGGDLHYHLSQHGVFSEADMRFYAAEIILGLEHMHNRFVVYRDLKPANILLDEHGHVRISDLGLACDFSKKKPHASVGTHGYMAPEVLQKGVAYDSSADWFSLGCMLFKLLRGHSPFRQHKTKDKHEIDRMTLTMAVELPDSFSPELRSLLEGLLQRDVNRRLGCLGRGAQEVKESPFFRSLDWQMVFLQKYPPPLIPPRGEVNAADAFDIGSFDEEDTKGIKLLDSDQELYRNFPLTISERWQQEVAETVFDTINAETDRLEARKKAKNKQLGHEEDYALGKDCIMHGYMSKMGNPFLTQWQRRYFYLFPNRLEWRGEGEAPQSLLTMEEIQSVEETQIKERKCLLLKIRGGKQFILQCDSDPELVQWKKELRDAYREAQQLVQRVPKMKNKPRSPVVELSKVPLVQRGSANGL

[10] = target: Cyclin-dependent kinase 7 (Homo sapiens) (UniProt P50613); experiment: CDK7CYCLIN Invitrogen selectivity data (BI); conditions: Compound concentration 3.0 uM
[11] = target: Death-associated protein kinase 1 (Homo sapiens) (UniProt P53355); experiment: DAPK1 Invitrogen selectivity data (BI); conditions: Compound concentration 3.0 uM
[12] = target: Ephrin type-A receptor 2 (Homo sapiens) (UniProt P29317); experiment: EPHA2 Invitrogen selectivity data (BI); conditions: Compound concentration 3.0 uM
[13] = target: Receptor tyrosine-protein kinase erbB-2 (Homo sapiens) (UniProt P04626); experiment: ERBB2 Invitrogen selectivity data (BI); conditions: Compound concentration 3.0 uM
Chain of Receptor tyrosine-protein kinase erbB-2 (Homo sapiens) (P04626 whole entry): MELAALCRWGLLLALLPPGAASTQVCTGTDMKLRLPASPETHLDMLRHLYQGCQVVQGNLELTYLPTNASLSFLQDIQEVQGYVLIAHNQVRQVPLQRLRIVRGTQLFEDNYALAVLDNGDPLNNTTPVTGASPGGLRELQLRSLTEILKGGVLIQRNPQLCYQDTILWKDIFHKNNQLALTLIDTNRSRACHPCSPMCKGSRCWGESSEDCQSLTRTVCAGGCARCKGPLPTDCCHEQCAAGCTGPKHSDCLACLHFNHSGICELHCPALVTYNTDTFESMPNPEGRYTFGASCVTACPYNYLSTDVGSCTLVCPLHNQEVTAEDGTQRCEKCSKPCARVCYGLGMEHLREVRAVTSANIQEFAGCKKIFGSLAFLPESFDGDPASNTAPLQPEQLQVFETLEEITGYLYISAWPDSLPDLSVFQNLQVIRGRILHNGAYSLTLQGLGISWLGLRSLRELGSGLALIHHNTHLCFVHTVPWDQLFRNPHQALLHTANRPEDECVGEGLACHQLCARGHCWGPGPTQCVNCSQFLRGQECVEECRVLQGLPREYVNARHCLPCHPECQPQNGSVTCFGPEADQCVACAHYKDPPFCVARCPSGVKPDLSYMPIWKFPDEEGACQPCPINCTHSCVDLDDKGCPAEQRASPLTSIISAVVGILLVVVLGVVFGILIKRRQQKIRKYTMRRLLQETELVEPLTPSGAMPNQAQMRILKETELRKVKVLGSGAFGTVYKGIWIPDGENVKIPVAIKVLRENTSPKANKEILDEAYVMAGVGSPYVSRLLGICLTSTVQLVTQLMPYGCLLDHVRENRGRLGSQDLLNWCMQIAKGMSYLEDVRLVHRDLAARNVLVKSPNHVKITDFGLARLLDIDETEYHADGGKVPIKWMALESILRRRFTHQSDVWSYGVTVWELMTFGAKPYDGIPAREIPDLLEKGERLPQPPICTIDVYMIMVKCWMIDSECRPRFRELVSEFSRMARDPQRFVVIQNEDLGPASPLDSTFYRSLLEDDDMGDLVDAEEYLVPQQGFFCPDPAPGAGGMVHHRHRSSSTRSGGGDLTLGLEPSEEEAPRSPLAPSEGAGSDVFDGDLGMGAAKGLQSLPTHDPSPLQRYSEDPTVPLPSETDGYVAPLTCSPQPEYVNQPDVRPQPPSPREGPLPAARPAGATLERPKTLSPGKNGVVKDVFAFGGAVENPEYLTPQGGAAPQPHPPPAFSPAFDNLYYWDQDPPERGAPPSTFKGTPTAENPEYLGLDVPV

[14] = target: Receptor tyrosine-protein kinase erbB-4 (Homo sapiens) (UniProt Q15303); experiment: ERBB4 Invitrogen selectivity data (BI); conditions: Compound concentration 3.0 uM
Chain of Receptor tyrosine-protein kinase erbB-4 (Homo sapiens) (Q15303 whole entry): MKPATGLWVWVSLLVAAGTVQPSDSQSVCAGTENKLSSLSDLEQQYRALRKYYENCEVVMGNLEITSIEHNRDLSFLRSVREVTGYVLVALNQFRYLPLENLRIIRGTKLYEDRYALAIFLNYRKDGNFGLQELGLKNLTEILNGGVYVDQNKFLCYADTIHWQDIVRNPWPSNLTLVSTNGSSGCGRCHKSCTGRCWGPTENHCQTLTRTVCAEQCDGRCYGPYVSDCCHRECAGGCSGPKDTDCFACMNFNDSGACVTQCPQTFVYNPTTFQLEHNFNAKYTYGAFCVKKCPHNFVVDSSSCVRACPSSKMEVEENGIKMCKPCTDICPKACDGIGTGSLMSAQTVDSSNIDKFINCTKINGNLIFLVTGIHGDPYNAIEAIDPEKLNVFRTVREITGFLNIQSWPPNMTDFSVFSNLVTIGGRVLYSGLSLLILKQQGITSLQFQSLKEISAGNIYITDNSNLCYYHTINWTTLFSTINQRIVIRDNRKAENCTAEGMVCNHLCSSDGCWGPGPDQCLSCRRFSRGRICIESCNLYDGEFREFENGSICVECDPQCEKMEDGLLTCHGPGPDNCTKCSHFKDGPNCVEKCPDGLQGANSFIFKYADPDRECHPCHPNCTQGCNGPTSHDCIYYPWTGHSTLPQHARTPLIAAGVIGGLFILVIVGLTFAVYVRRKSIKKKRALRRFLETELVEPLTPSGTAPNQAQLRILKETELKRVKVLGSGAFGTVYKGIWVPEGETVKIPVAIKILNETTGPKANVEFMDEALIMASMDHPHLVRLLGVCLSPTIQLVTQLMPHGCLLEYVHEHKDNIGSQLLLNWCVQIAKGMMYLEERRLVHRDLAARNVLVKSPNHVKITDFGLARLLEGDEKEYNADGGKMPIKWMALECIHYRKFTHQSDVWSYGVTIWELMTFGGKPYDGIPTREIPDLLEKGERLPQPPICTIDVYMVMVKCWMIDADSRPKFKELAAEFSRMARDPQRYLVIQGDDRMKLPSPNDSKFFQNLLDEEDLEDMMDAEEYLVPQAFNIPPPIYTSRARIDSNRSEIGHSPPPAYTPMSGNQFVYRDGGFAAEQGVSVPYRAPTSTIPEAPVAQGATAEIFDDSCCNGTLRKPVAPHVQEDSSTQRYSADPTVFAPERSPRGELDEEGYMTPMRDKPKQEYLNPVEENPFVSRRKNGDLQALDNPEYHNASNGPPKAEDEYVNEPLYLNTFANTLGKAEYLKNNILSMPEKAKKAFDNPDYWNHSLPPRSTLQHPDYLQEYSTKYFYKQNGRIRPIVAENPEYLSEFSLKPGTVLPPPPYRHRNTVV

[15] = target: Insulin receptor-related protein (Homo sapiens) (UniProt P14616); experiment: INSRR Invitrogen selectivity data (BI); conditions: Compound concentration 3.0 uM
[16] = target: Mast/stem cell growth factor receptor Kit (Homo sapiens) (UniProt P10721); experiment: KIT Invitrogen selectivity data (BI); conditions: Compound concentration 3.0 uM
Chain of Mast/stem cell growth factor receptor Kit (Homo sapiens) (P10721 whole entry): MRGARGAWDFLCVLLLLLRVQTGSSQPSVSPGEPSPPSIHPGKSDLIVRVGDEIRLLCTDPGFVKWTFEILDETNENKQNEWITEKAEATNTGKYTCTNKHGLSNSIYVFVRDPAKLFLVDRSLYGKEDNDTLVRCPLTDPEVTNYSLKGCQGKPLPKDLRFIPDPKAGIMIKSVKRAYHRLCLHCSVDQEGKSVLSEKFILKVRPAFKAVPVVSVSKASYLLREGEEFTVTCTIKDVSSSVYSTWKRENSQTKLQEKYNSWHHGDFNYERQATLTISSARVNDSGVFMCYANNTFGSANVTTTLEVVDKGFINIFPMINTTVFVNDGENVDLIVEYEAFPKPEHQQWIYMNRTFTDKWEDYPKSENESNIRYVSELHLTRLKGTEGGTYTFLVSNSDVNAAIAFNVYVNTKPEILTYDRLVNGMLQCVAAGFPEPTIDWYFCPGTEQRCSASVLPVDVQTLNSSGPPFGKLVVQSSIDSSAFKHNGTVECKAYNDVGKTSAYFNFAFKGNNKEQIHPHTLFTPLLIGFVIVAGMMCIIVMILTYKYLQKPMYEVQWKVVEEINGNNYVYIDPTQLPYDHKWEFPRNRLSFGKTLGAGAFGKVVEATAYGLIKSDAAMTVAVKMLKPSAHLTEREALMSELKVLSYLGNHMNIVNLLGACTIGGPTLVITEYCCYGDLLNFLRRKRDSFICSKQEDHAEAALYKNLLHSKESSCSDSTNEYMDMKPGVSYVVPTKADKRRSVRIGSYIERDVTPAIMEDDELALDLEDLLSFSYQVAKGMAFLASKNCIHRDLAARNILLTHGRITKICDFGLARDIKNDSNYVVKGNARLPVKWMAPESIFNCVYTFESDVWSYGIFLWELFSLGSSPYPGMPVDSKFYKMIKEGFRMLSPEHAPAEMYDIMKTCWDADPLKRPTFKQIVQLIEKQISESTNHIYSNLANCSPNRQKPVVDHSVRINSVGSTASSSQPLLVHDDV

[17] = target: Serine/threonine-protein kinase MARK2 (Homo sapiens) (UniProt Q7KZI7); experiment: MARK2 Invitrogen selectivity data (BI); conditions: Compound concentration 3.0 uM
Chain of Serine/threonine-protein kinase MARK2 (Homo sapiens) (Q7KZI7 whole entry): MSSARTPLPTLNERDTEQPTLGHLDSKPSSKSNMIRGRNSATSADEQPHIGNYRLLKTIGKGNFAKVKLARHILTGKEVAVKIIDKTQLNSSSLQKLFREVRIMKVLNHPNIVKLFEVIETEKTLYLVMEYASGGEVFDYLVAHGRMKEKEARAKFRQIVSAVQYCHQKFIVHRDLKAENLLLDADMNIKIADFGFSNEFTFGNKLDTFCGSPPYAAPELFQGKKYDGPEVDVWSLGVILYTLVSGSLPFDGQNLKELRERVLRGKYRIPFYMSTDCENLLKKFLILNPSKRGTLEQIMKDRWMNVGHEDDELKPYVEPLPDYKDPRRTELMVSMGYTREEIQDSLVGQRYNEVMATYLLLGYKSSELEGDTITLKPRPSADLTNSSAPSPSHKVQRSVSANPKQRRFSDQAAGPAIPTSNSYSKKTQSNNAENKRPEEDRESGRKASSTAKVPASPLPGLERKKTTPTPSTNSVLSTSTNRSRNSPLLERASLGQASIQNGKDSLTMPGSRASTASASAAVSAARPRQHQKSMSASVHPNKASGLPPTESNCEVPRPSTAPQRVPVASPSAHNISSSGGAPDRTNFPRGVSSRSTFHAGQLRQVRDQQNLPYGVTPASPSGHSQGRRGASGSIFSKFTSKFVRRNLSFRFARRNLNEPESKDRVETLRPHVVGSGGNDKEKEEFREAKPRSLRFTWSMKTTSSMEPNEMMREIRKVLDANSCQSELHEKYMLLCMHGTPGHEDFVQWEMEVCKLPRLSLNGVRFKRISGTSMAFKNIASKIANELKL

[18] = target: Serine/threonine-protein kinase PLK2 (Homo sapiens) (UniProt Q9NYY3); experiment: PLK2 Invitrogen selectivity data (BI); conditions: Compound concentration 3.0 uM
Chain of Serine/threonine-protein kinase PLK2 (Homo sapiens) (Q9NYY3 whole entry, looked up): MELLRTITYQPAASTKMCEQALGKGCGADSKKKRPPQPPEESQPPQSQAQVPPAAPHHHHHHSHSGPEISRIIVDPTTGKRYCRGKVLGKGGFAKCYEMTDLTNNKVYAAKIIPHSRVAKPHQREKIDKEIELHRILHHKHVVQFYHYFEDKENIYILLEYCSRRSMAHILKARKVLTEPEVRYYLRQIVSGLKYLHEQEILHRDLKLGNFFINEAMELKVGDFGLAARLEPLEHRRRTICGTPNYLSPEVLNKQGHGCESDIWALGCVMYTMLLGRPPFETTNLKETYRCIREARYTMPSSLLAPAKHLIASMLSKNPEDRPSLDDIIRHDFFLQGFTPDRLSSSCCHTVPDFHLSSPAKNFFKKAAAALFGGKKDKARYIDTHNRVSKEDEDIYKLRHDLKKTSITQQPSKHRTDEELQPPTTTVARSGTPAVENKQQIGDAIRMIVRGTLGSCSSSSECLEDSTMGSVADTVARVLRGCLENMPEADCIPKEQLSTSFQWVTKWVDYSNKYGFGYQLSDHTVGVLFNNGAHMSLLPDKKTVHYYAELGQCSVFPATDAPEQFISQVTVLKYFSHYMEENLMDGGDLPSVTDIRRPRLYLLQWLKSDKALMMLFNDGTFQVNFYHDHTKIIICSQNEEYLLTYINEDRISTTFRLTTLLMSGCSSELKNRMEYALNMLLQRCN

[19] = target: Protein kinase C gamma type (Homo sapiens) (UniProt P05129); experiment: PRKCG Invitrogen selectivity data (BI); conditions: Compound concentration 3.0 uM

Measured: residual activity

CN(C)C(=O)Cn1cc(-c2nc([C@@](C)(c3ccc(-c4cnc(N)nc4)cc3)C3CC3)no2)cn1 [BI 665915]
inactive: [1] 98% | [2] 83% | [3] 103% | [4] 94% | [5] 97% | [6] 103% | [7] 65% | [8] 111% | [9] 98.5% | [10] 100% | [11] 99.5% | [12] 99% | [13] 108% | [14] 98.5% | [15] 96% | [16] 85% | [17] 98.5% | [18] 90% | [19] 100%
